How the values were obtained:
Test in all cases: relative viability (nuclei count vs DMSO), 5 days (fraction); higher = more cells survive
[1] = tested on: PC-14
Summary of the method: (§1)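 Nuclei were stained with Hoechst during a one-step fixation (final 0.05% Triton X-100, 1% formaldehyde, 1 ug/ml Hoechst) carried out 5 days after dosing, then counted on 4× images. The cells, lung cancer lines in 1536-well plates, had been dosed by pin tool the day after seeding with one drug alone or a fixed anchor-drug dose plus five library-drug doses (not always all listed) in √10 steps. Relative viability is the nuclei count in treated wells divided by that in vehicle wells, and each value is the median of duplicate plates.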

[2] = tested on: SK-MES-1
Summary of the method: as §1

[3] = tested on: NCI-H1915
Summary of the method: as §1

[4] = tested on: NCI-H2347
Summary of the method: as §1

[5] = tested on: NCI-H661
Summary of the method: as §1

[6] = tested on: NCI-H520
Summary of the method: as §1

[7] = tested on: NCI-H727
Summary of the method: as §1

[8] = tested on: NCI-H3122
Summary of the method: as §1

[9] = tested on: LXF-289
Summary of the method: as §1

[10] = tested on: NCI-H1563
Summary of the method: as §1

[11] = tested on: NCI-H1755
Summary of the method: as §1

[12] = tested on: LCLC-103H
Summary of the method: as §1

[13] = tested on: NCI-H441
Summary of the method: as §1

[14] = tested on: NCI-H596
Summary of the method: as §1

[15] = tested on: NCI-H650
Summary of the method: as §1

[16] = tested on: RERF-LC-KJ
Summary of the method: as §1

[17] = tested on: NCI-H322M
Summary of the method: as §1

[18] = tested on: NCI-H460
Summary of the method: as §1

[19] = tested on: NCI-H1792
Summary of the method: as §1

[20] = tested on: NCI-H1651
Summary of the method: as §1

[21] = tested on: NCI-H2170
Summary of the method: as §1

[22] = tested on: NCI-H1355
Summary of the method: as §1

CC1(C)CCC(c2ccc(Cl)cc2)=C(CN2CCN(c3ccc(C(=O)NS(=O)(=O)c4ccc(N[C@H](CCN5CCOCC5)CSc5ccccc5)c(S(=O)(=O)C(F)(F)F)c4)cc3)CC2)C1 [Navitoclax] + C[C@@H](Oc1cc(-c2cnn(C3CCNCC3)c2)cnc1N)c1c(Cl)ccc(F)c1Cl [Crizotinib] (partner 1 µM)
relative viability ([1]; first compound 0.005 µM): 0.905
relative viability ([1]; first compound 0.01581 µM): 0.977
relative viability ([1]; first compound 0.05 µM): 0.951
relative viability ([1]; first compound 0.1581 µM): 0.886
relative viability ([1]; first compound 0.5 µM): 0.952
relative viability ([2]; first compound 0.005 µM): 0.953
relative viability ([2]; first compound 0.01581 µM): 1.07
relative viability ([2]; first compound 0.05 µM): 1.08
relative viability ([2]; first compound 0.1581 µM): 0.953
relative viability ([2]; first compound 0.5 µM): 0.978
relative viability ([3]; first compound 0.005 µM): 0.915
relative viability ([3]; first compound 0.01581 µM): 0.881
relative viability ([3]; first compound 0.05 µM): 0.877
relative viability ([3]; first compound 0.1581 µM): 0.879
relative viability ([3]; first compound 0.5 µM): 0.858
relative viability ([4]; first compound 0.005 µM): 0.653
relative viability ([4]; first compound 0.01581 µM): 0.602
relative viability ([4]; first compound 0.05 µM): 0.2
relative viability ([4]; first compound 0.1581 µM): 0.681
relative viability ([4]; first compound 0.5 µM): 0.705
relative viability ([5]; first compound 0.005 µM): 1.12
relative viability ([5]; first compound 0.01581 µM): 0.964
relative viability ([5]; first compound 0.05 µM): 0.947
relative viability ([5]; first compound 0.1581 µM): 0.951
relative viability ([5]; first compound 0.5 µM): 1
relative viability ([6]; first compound 0.005 µM): 0.751
relative viability ([6]; first compound 0.01581 µM): 0.715
relative viability ([6]; first compound 0.05 µM): 0.762
relative viability ([6]; first compound 0.1581 µM): 0.737
relative viability ([6]; first compound 0.5 µM): 0.79
relative viability ([7]; first compound 0.005 µM): 0.692
relative viability ([7]; first compound 0.01581 µM): 1.11
relative viability ([7]; first compound 0.1581 µM): 0.797
relative viability ([7]; first compound 0.5 µM): 0.73
relative viability ([8]; first compound 0.005 µM): 0.254
relative viability ([8]; first compound 0.01581 µM): 0.308
relative viability ([8]; first compound 0.05 µM): 0.244
relative viability ([8]; first compound 0.1581 µM): 0.306
relative viability ([8]; first compound 0.5 µM): 0.292
relative viability ([9]; first compound 0.005 µM): 0.736
relative viability ([9]; first compound 0.01581 µM): 0.836
relative viability ([9]; first compound 0.05 µM): 0.787
relative viability ([9]; first compound 0.1581 µM): 0.797
relative viability ([9]; first compound 0.5 µM): 0.794
relative viability ([10]; first compound 0.005 µM): 0.908
relative viability ([10]; first compound 0.01581 µM): 0.92
relative viability ([10]; first compound 0.05 µM): 0.897
relative viability ([10]; first compound 0.1581 µM): 0.808
relative viability ([10]; first compound 0.5 µM): 1.12
relative viability ([11]; first compound 0.005 µM): 0.823
relative viability ([11]; first compound 0.01581 µM): 0.903
relative viability ([11]; first compound 0.05 µM): 0.715
relative viability ([11]; first compound 0.1581 µM): 0.859
relative viability ([11]; first compound 0.5 µM): 0.89
relative viability ([12]; first compound 0.005 µM): 1.05
relative viability ([12]; first compound 0.01581 µM): 0.979
relative viability ([12]; first compound 0.05 µM): 0.951
relative viability ([12]; first compound 0.1581 µM): 1.12
relative viability ([12]; first compound 0.5 µM): 0.976
relative viability ([13]; first compound 0.005 µM): 0.657
relative viability ([13]; first compound 0.01581 µM): 0.865
relative viability ([13]; first compound 0.05 µM): 0.734
relative viability ([13]; first compound 0.1581 µM): 0.764
relative viability ([13]; first compound 0.5 µM): 0.621
relative viability ([14]; first compound 0.005 µM): 1.02
relative viability ([14]; first compound 0.01581 µM): 0.985
relative viability ([14]; first compound 0.05 µM): 0.802
relative viability ([14]; first compound 0.1581 µM): 1.02
relative viability ([14]; first compound 0.5 µM): 1.01
relative viability ([15]; first compound 0.005 µM): 0.636
relative viability ([15]; first compound 0.01581 µM): 0.699
relative viability ([15]; first compound 0.05 µM): 0.814
relative viability ([15]; first compound 0.1581 µM): 0.707
relative viability ([15]; first compound 0.5 µM): 0.805
relative viability ([16]; first compound 0.005 µM): 0.825
relative viability ([16]; first compound 0.01581 µM): 0.712
relative viability ([16]; first compound 0.05 µM): 0.789
relative viability ([16]; first compound 0.1581 µM): 0.796
relative viability ([16]; first compound 0.5 µM): 0.833
relative viability ([17]; first compound 0.005 µM): 0.885
relative viability ([17]; first compound 0.01581 µM): 0.954
relative viability ([17]; first compound 0.05 µM): 0.839
relative viability ([17]; first compound 0.1581 µM): 0.858
relative viability ([17]; first compound 0.5 µM): 0.92
relative viability ([18]; first compound 0.005 µM): 0.805
relative viability ([18]; first compound 0.01581 µM): 0.915
relative viability ([18]; first compound 0.05 µM): 0.979
relative viability ([18]; first compound 0.1581 µM): 0.894
relative viability ([18]; first compound 0.5 µM): 0.874
relative viability ([19]; first compound 0.005 µM): 0.996
relative viability ([19]; first compound 0.01581 µM): 1.04
relative viability ([19]; first compound 0.05 µM): 0.911
relative viability ([19]; first compound 0.1581 µM): 1
relative viability ([19]; first compound 0.5 µM): 0.946
relative viability ([20]; first compound 0.005 µM): 0.877
relative viability ([20]; first compound 0.01581 µM): 0.939
relative viability ([20]; first compound 0.05 µM): 0.78
relative viability ([20]; first compound 0.1581 µM): 0.821
relative viability ([20]; first compound 0.5 µM): 0.839
relative viability ([21]; first compound 0.005 µM): 1.06
relative viability ([21]; first compound 0.01581 µM): 1.28
relative viability ([21]; first compound 0.05 µM): 1.21
relative viability ([21]; first compound 0.1581 µM): 1.06
relative viability ([21]; first compound 0.5 µM): 1.05
relative viability ([22]; first compound 0.005 µM): 1.03
relative viability ([22]; first compound 0.01581 µM): 1.15
relative viability ([22]; first compound 0.05 µM): 1.02
relative viability ([22]; first compound 0.1581 µM): 1.05
relative viability ([22]; first compound 0.5 µM): 1.03
